Here are results for 2 compounds from ChEMBL document CHEMBL6109071, “Chemical modification for improving drug-like molecular properties of climacostol, a natural resorcinolic lipid” (Bioorg Med Chem, 2025).

Data set [1] relates to SH-SY5Y. Kind of data set: Cytotoxicity against human SH-SY5Y cells assessed as reduction in cell viability measured after 24 hrs by MTT assay. The data set is classed as functional, cell-based. A general note: Tetrazolium assays rely on reduction of a dye to a coloured formazan, in cell work by metabolically active cells.
Another data set relates to Spirostomum ambiguum. Kind of data set: Cytotoxicity against Spirostomum ambiguum stock Pol-5 assessed as reduction in viability measured after 1 hr. The data set is classed as functional.
Data set [2] has as its system Stentor polymorphus. As to the kind of experiment: Cytotoxicity against Stentor polymorphus stock GF-1 assessed as reduction in viability measured after 1 hr. The data set is classed as functional.
Data set [3] has as its system Paramecium tetraurelia. Kind of data set: Cytotoxicity against Paramecium tetraurelia stock 51 assessed as reduction in viability measured after 24 hrs. In kind it is functional.
Data set [4] relates to SH-SY5Y. As to the kind of experiment: Cytotoxicity against human SH-SY5Y cells assessed as cell death at 30 ug/ml measured after 24 hrs by MTT assay relative to control. The data set is classed as functional.
Data set [5] deals with Euplotes aediculatus. As to the kind of experiment: Cytotoxicity against Euplotes aediculatus clone EA-III assessed as reduction in viability measured after 1 hr. The data set is classed as functional.
Data set [6] concerns Spirostomum teres. Kind of data set: Cytotoxicity against Spirostomum teres stock Pol-1 assessed as reduction in viability measured after 1 hr. In kind it is functional.
Data set [7] relates to Euplotes aediculatus. As to the kind of experiment: Cytotoxicity against Euplotes aediculatus clone EA-III assessed as reduction in viability measured after 24 hrs. The data set is classed as functional.
Data set [8] deals with Paramecium multimicronucleatum. As to the kind of experiment: Cytotoxicity against Paramecium multimicronucleatum clone TL-2 assessed as reduction in viability measured after 1 hr. The data set is classed as functional.
Data set [9] deals with Paramecium tetraurelia. Kind of data set: Cytotoxicity against Paramecium tetraurelia stock 51 assessed as reduction in viability measured after 1 hr. In kind it is functional.
The test system of data set [10] is Stentor polymorphus. As to the kind of experiment: Cytotoxicity against Stentor polymorphus stock GF-1 assessed as reduction in viability measured after 24 hrs. The data set is classed as functional.
Data set [11] has as its system Spirostomum teres. As to the kind of experiment: Cytotoxicity against Spirostomum teres stock Pol-1 assessed as reduction in viability measured after 24 hrs. In kind it is functional.
The test system of data set [12] is SH-SY5Y. Kind of data set: Cytotoxicity against human SH-SY5Y cells assessed as reduction in cell viability at 30 ug/ml measured after 3 hrs by MTT assay relative to control. In kind it is functional.
Data set [13] has as its system Blepharisma japonicum. Kind of data set: Cytotoxicity against Blepharisma japonicum R1072 assessed as reduction in viability measured after 1 hr. The data set is classed as functional.
In data set [14] the test system is Paramecium multimicronucleatum. As to the kind of experiment: Cytotoxicity against Paramecium multimicronucleatum clone TL-2 assessed as reduction in viability measured after 24 hrs. In kind it is functional.
Data set [15] concerns Blepharisma japonicum. Kind of data set: Cytotoxicity against Blepharisma japonicum R1072 assessed as reduction in viability measured after 24 hrs. In kind it is functional.
Data set [16] deals with SH-SY5Y. As to the kind of experiment: Induction of apoptosis in human SH-SY5Y cells assessed as altered morphology of nuclear area at 10 to 30 ug/ml measured after 9 hrs by DAPI/phalloidin staining based confocal microscopy. The data set is classed as functional, cell-based. The note with it: dose 10-30 µg/ml.
Data set [17] concerns SH-SY5Y. As to the kind of experiment: Induction of apoptosis in human SH-SY5Y cells assessed as cytoplasmic shrinkage at 10 to 30 ug/ml measured after 9 hrs by DAPI/phalloidin staining based confocal microscopy. In kind it is functional, cell-based. The note with it: dose 10-30 µg/ml.
Data set [18] has as its system SH-SY5Y. As to the kind of experiment: Cytotoxicity against human SH-SY5Y cells assessed as cell death at 10 ug/ml measured after 24 hrs by MTT assay relative to control. In kind it is functional.
Data set [19] can be described thus: Toxicity in Drosophila melanogaster Oregon-R assessed as increase in cleaved caspase-3 in the cytoplasm of midgut cells of third instar larvae at 100 ug/ml administered through feeding measured after day 8 to 9 by DAPI immunostaining based confocal microscopy. The note with it: po, time 8-9 day, dose 100 µg/ml. In kind it is tissue-based.
Data set [20] relates to SH-SY5Y. Kind of data set: Induction of apoptosis in human SH-SY5Y cells assessed as chromatin condensation at 10 to 30 ug/ml measured after 9 hrs by DAPI/phalloidin staining based confocal microscopy. In kind it is functional, cell-based. The settings on record: dose 10-30 µg/ml.
The subject of data set [21] is Euplotes aediculatus. As to the kind of experiment: Potency index, ratio of climacostol LC50 to test compound LC50 for cytotoxicity against Euplotes aediculatus clone EA-III. The data set is classed as functional.
Data set [22] relates to SH-SY5Y. As to the kind of experiment: Induction of apoptosis in human SH-SY5Y cells assessed as altered roundness of nuclear area at 10 to 30 ug/ml measured after 9 hrs by DAPI/phalloidin staining based confocal microscopy. In kind it is functional, cell-based. The note with it: dose 10-30 µg/ml.
Data set [23] deals with Paramecium multimicronucleatum. Kind of data set: Potency index, ratio of climacostol LC50 to test compound LC50 for cytotoxicity against Paramecium multimicronucleatum clone TL-2. In kind it is functional.
Data set [24] in a line: Toxicity in Drosophila melanogaster Oregon-R assessed as DNA fragmentation in digestive tract of third instar larvae at 100 ug/ml administered through feeding measured after day 8 to 9 by TUNEL/DAPI staining based confocal microscopy. The note with it: po, time 8-9 day, dose 100 µg/ml.
A short description of data set [25]: Toxicity in Drosophila melanogaster Oregon-R assessed as change in larvae development by measuring reduction in developed third instar larvae at 100 ug/ml administered through feeding measured twice daily on day 8 to 9 post-treatment relative to control. Also noted: scale not given: the % may be the effect or the level left. The settings on record: po, at 100 µg/mL, time 8-9 day.

The test system of data set [26] is Paramecium tetraurelia. Kind of data set: Potency index, ratio of climacostol LC50 to test compound LC50 for cytotoxicity against Paramecium tetraurelia stock 51. In kind it is functional.
Data set [27] has as its system SH-SY5Y. Kind of data set: Induction of apoptosis in human SH-SY5Y cells assessed as increase in caspase-3 expression at 10 to 30 ug/ml measured after 9 hrs by immunostaining based confocal microscopy. In kind it is functional, cell-based. The note with it: dose 10-30 µg/ml.

In brackets after ≈: the same amount, converted by molar mass. Activity calls are given as the source filed them. No cut-off for these calls is given here.

Take `CCCCCC/C=C\Cc1cc(O)cc(O)c1`: the Activity entry in the data set on SH-SY5Y [1] was “Dose-dependent-effect”. Moreover, in the data set on SH-SY5Y [1], the IC50 worked out at 12.9 µg/mL (≈ 54.9 µM). Moreover, the LC50 in the data set with Spirostomum ambiguum worked out at 2.03 µg/mL (≈ 8.66 µM); in the data set on Stentor polymorphus [2], 1.21 µg/mL (≈ 5.16 µM); in the data set on Paramecium tetraurelia [3], 0.9 µg/mL (≈ 3.84 µM); with Euplotes aediculatus [5], 1.7 µg/mL (≈ 7.25 µM); in the data set on Spirostomum teres [6], 2.04 µg/mL (≈ 8.71 µM); in the data set with Euplotes aediculatus [7], 0.83 µg/mL (≈ 3.54 µM). Further, the LC50 in data set [8] amounted to 1.64 µg/mL (≈ 7 µM); in the data set with Paramecium tetraurelia [9], 1.43 µg/mL (≈ 6.1 µM); in the data set on Stentor polymorphus [10], 0.94 µg/mL (≈ 4.01 µM); in the data set on Spirostomum teres [11] it was 1.68 µg/mL (≈ 7.17 µM); with Blepharisma japonicum [13], 3.17 µg/mL (≈ 13.5 µM); in data set [14], 0.88 µg/mL (≈ 3.76 µM). Besides, the LC50 in the data set with Blepharisma japonicum [15] was 2.04 µg/mL (≈ 8.71 µM). Besides, the Emax at 30 µg/mL with SH-SY5Y [4] was found to be 90%. Further, in the data set on SH-SY5Y [12] (dose 30.0 µg/ml), the result was inactive.

`CCCCCC/C=C\Cc1cc(O)cc(O)c1O`: the Activity entry was “Dose-dependent-effect” with SH-SY5Y [1]; “Toxic” in data set [19]; 90% with SH-SY5Y [12] (dose 30 µg/ml); “Toxic” in [24]; 23% in [25]. Also, the IC50 with SH-SY5Y [1] came out at 4.72 µg/mL (≈ 18.9 µM). The LC50 in the data set on Spirostomum ambiguum came to 3.73 µg/mL (≈ 14.9 µM); with Stentor polymorphus [2], 1.24 µg/mL (≈ 4.95 µM); in the data set with Paramecium tetraurelia [3], 0.21 µg/mL (≈ 0.839 µM); in the data set on Euplotes aediculatus [5] it was 0.7 µg/mL (≈ 2.8 µM); in the data set on Spirostomum teres [6], 2.24 µg/mL (≈ 8.95 µM); with Euplotes aediculatus [7] it was 0.23 µg/mL (≈ 0.919 µM). Further, the LC50 in data set [8] came to 0.58 µg/mL (≈ 2.32 µM); in the data set on Paramecium tetraurelia [9], 0.29 µg/mL (≈ 1.16 µM); with Stentor polymorphus [10] it was 0.54 µg/mL (≈ 2.16 µM); in the data set on Spirostomum teres [11], 1.86 µg/mL (≈ 7.43 µM); in the data set with Blepharisma japonicum [13], 3.97 µg/mL (≈ 15.9 µM); in data set [14] it was 0.13 µg/mL (≈ 0.519 µM). Also, the LC50 with Blepharisma japonicum [15] was found to be 2.07 µg/mL (≈ 8.27 µM). The outcome with SH-SY5Y [16], in the data set on SH-SY5Y [17], with SH-SY5Y [20], in the data set on SH-SY5Y [22] and with SH-SY5Y [27] was Active. For the same compound, the maximal response (Emax) at 10 µg/mL in the data set with SH-SY5Y [18] is 90%. For the same compound, the RatioLC50 (in the data set with Euplotes aediculatus [21]; in [23]; in the data set with Paramecium tetraurelia [26]) was 2.5 in each case.

By IC50 is commonly meant the concentration at which inhibition is half-maximal. A word on the LC50: it is the concentration lethal to half of the exposed cells or organisms. Broadly, the Emax is the maximal effect, on the per cent scale that the assay sets.
